Reference: patent publication US5565200A, “Pharmaceutical preparations derived from korean mistletoe” (priority 1995, dated 1996)

Assays:
[1] = Weight change of tumor-bearing mice to assess toxic effects; type: in vivo; conditions: 98 mg/kg, i.p., qd (1,7,14,21)
Excerpt: (§1) Anticancer activities of n-T4GEN were studied in animals bearing subcutaneous transplants of C3H Mammary adenocarcinoma 16/C. This tumor is maintained as a lung passed tumor in C3H female mice. In this example, tumors (1×10^6 cells) were transplanted (S.C.) in 18-20 g B6C3F^1 hybrid female mice. On the following day, the tumor bearing animals were randomized and separated into different treatment groups (10 mice per group). There were 15 animals in the control group who received only physiological saline during the treatment periods. The treatments (i.p.) were started 48 hours after the transplants and given for a duration of 14 days (daily single injections). Animals were weighed on days 5, 9 and 14 to assess toxic effects. Tumors were measured on days 21, 28 post transplants and the results are represented as tumor weights using formula [formula]

[2] = tested on: C3H Mammary adenocarcinoma 16/C; assay: Growth of subcutaneous transplants of C3H mammary adenocarcinoma 16/C in B6C3F1 female mice; type: in vivo; conditions: 98 mg/kg, i.p., qd (1,7,14,21)
Excerpt: as §1, with “The treatments (i.p.) were started 48 hours after the transplants and given for a duration of 14 days (daily single injections).” left out

O=c1[nH]cc(F)c(=O)[nH]1 [5Fluorouracil]
Δ Wts (g) (day 14) [1]: +1.77 g
Tumor Free Animals (day 93) [2]: 0/6
Tumor Inhibition % [2]: 100%
Tumor Wts (day 21) [2]: 0.00
